Experimental data from patent publication US20170050957A1, “4-AMINO-6-(HETEROCYCLIC)PICOLINATES AND 6-AMINO-2-(HETEROCYCLIC)PYRIMIDINE-4-CARBOXYLATES AND THEIR USE AS HERBICIDES” (Dow AgroSciences LLC, priority 2013, published 2017).
Where two headings read alike, the source gives them in different places.

What was measured:
[1] = tested on: Key Grass and Sedge Weeds as well as Grass Crops; assay: Post-emergent Test II herbicidal activity (Table 16); assay type: in vivo; details: post-emergence, 336 h, 14 d; for pest or weed control at 35 g/ha: 35 g ai/ha; for pest or weed control at 70 g/ha: 70 g ai/ha; for pest or weed control at 140 g/ha: 140 g ai/ha
Procedure, shortened: (§1)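 Herbicidal effect scored as percent visual injury, 14 d after post-emergent application. Spray solutions contained acetone, DMSO, isopropyl alcohol, crop oil concentrate and surfactant, applied at 187 L/ha to young plants (1-2 true leaves).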

[2] = tested on: Key Broadleaf Weed and Crop Species; assay: Post-emergent Test II herbicidal activity (Table 15); assay type: in vivo; details: post-emergence, 336 h, 14 d; for pest or weed control at 35 g/ha: 35 g ai/ha; for pest or weed control at 70 g/ha: 70 g ai/ha; for pest or weed control at 140 g/ha: 140 g ai/ha
Procedure, shortened: as §1

[3] = Cyperus esculentus, yellow nutsedge (Cyperus esculentus), read-out: Visual Growth Reduction (%) 14 Days After Application, CYPES
[4] = Echinochloa crus-galli, barnyardgrass (Echinochloa crus-galli), read-out: Visual Growth Reduction (%) 14 Days After Application, ECHCG
[5] = Oryza sativa, rice (Oryza sativa), read-out: Visual Growth Reduction (%) 14 Days After Application, ORYSA
[6] = Setaria faberi, giant foxtail (Setaria faberi), read-out: Visual Growth Reduction (%) 14 Days After Application, SETFA
[7] = Triticum aestivum, wheat, spring (Triticum aestivum), read-out: Visual Growth Reduction (%) 14 Days After Application, TRZAS
[8] = Zea mays, maize, corn (Zea mays), read-out: Visual Growth Reduction (%) 14 Days After Application, ZEAMX
[9] = Abutilon theophrasti, velvetleaf (Abutilon theophrasti), read-out: Visual Growth Reduction (%) 14 Days After Application, ABUTH
[10] = Amaranthus retroflexus, redroot pigweed (Amaranthus retroflexus), read-out: Visual Growth Reduction (%) 14 Days After Application, AMARE
[11] = Brassica napus, oilseed rape, canola (Brassica napus), read-out: Visual Growth Reduction (%) 14 Days After Application, BRSNN
[12] = Chenopodium album, lambsquarters (Chenopodium album), read-out: Visual Growth Reduction (%) 14 Days After Application, CHEAL
[13] = Euphorbia heterophylla, wild poinsettia (Euphorbia heterophylla), read-out: Visual Growth Reduction (%) 14 Days After Application, EPHHL
[14] = Helianthus annuus, sunflower (Helianthus annuus), read-out: Visual Growth Reduction (%) 14 Days After Application, HELAN

| SMILES | melting point [°C] | pest or weed control at 35 g/ha [1, 3] [%] | pest or weed control at 70 g/ha [1, 3] [%] | pest or weed control at 140 g/ha [1, 3] [%] | pest or weed control at 35 g/ha [1, 4] [%] | pest or weed control at 70 g/ha [1, 4] [%] | pest or weed control at 140 g/ha [1, 4] [%] | pest or weed control at 35 g/ha [1, 5] [%] | pest or weed control at 70 g/ha [1, 5] [%] | pest or weed control at 140 g/ha [1, 5] [%] | pest or weed control at 35 g/ha [1, 6] [%] | pest or weed control at 70 g/ha [1, 6] [%] | pest or weed control at 140 g/ha [1, 6] [%] | pest or weed control at 35 g/ha [1, 7] [%] | pest or weed control at 70 g/ha [1, 7] [%] | pest or weed control at 140 g/ha [1, 7] [%] | pest or weed control at 35 g/ha [1, 8] [%] | pest or weed control at 70 g/ha [1, 8] [%] | pest or weed control at 140 g/ha [1, 8] [%] | pest or weed control at 35 g/ha [2, 9] [%] | other results |
| --- | --- | --- | --- | --- | --- | --- | --- | --- | --- | --- | --- | --- | --- | --- | --- | --- | --- | --- | --- | --- | --- |
| COc1c(C(=O)O)nc(-c2ccc3cc[nH]c3c2F)c(F)c1N [Compound 1.17] | 133 to 140 | 45 to 59 | 45 to 59 | 45 to 59 | 85 to 94 | 85 to 94 | 85 to 94 | 0 to 29 | 0 to 29 | 0 to 29 | 75 to 84 | 85 to 94 | 85 to 94 | 60 to 74 | 60 to 74 | 60 to 74 | 60 to 74 | 75 to 84 | 75 to 84 | 45 to 59 | pest or weed control at 70 g/ha [2, 9]: 45 to 59%; pest or weed control at 140 g/ha [2, 9]: 60 to 74%; pest or weed control at 35 g/ha [2, 10]: 95 to 100%; pest or weed control at 70 g/ha [2, 10]: 95 to 100%; pest or weed control at 140 g/ha [2, 10]: 95 to 100%; pest or weed control at 35 g/ha [2, 11]: 95 to 100%; pest or weed control at 70 g/ha [2, 11]: 95 to 100%; pest or weed control at 140 g/ha [2, 11]: 95 to 100%; pest or weed control at 35 g/ha [2, 12]: 95 to 100%; pest or weed control at 70 g/ha [2, 12]: 95 to 100%; pest or weed control at 140 g/ha [2, 12]: 95 to 100%; pest or weed control at 35 g/ha [2, 13]: 95 to 100%; pest or weed control at 70 g/ha [2, 13]: 95 to 100%; pest or weed control at 140 g/ha [2, 13]: 95 to 100%; pest or weed control at 35 g/ha [2, 14]: 95 to 100%; pest or weed control at 70 g/ha [2, 14]: 95 to 100%; pest or weed control at 140 g/ha [2, 14]: 95 to 100% |
| COC(=O)c1nc(-c2ccc3cc[nH]c3c2F)c(F)c(N)c1OC [Compound 1.20] | 203 to 205 | 0 to 29 | 0 to 29 | 0 to 29 | 0 to 29 | 60 to 74 | 75 to 84 | 0 to 29 | 0 to 29 | 0 to 29 | 45 to 59 | 75 to 84 | 85 to 94 | 0 to 29 | 45 to 59 | 60 to 74 | 30 to 44 | 45 to 59 | 60 to 74 | 45 to 59 | pest or weed control at 70 g/ha [2, 9]: 60 to 74%; pest or weed control at 140 g/ha [2, 9]: 60 to 74%; pest or weed control at 35 g/ha [2, 10]: 75 to 84%; pest or weed control at 70 g/ha [2, 10]: 85 to 94%; pest or weed control at 140 g/ha [2, 10]: 95 to 100%; pest or weed control at 35 g/ha [2, 11]: 95 to 100%; pest or weed control at 70 g/ha [2, 11]: 95 to 100%; pest or weed control at 140 g/ha [2, 11]: 95 to 100%; pest or weed control at 35 g/ha [2, 12]: 95 to 100%; pest or weed control at 70 g/ha [2, 12]: 95 to 100%; pest or weed control at 140 g/ha [2, 12]: 95 to 100%; pest or weed control at 35 g/ha [2, 13]: 95 to 100%; pest or weed control at 70 g/ha [2, 13]: 95 to 100%; pest or weed control at 140 g/ha [2, 13]: 95 to 100%; pest or weed control at 35 g/ha [2, 14]: 95 to 100%; pest or weed control at 70 g/ha [2, 14]: 95 to 100%; pest or weed control at 140 g/ha [2, 14]: 95 to 100% |
